From PubChem BioAssay AID1626 (SRMLSC, 2009)

Test system: M. tuberculosis H37Rv growth inhibition
Assay: M. tuberculosis H37Rv growth inhibitors, H37Rv strain (AID 1626)
Conditions: for IC90: measured here: IC90 against H37Rv; for CC50: measured here: Vero cell cytotoxicity

SMILES	IC50 [µM]	IC90 [µM]	CC50 [µM]
Cc1ccc(Cl)c(OC(=O)c2ccc(N3CCOCC3)c([N+](=O)[O-])c2)c1	6.6	> 100	
c1ccc(CN2CCC(Nc3nc(-c4cccs4)nc4ccccc34)CC2)cc1	4.78	6.93	17.5
O=C(Nc1ccc2oc(-c3cccnc3)nc2c1)c1ccc([N+](=O)[O-])o1	< 0.195	> 100	1.32
COc1ccc(-c2csc(-c3cccs3)n2)cc1OC	11.3	> 100	
CCOC(=O)c1ccc(NCc2nc3ccccc3[nH]2)cc1	43.5	> 100	
CCOC(=O)CN(C#N)c1nc(N(C)C)nc(N(C)C)n1	9.34	11.7	
CC1CC(C)(C)Nc2ccc(N=O)cc21 (configuration not stated)	5.75	6.38	6.76
Cc1sc2nc(-c3ccccn3)[nH]c(=O)c2c1-c1ccccc1	0.69	1.69	15.2
CCOC(=O)c1ccc(NC(=O)CCC2COc3ccccc3O2)cc1 (configuration not stated)	3.3	> 100	
O=[N+]([O-])c1ccc(O)c(C=Nc2ccc3oc(Cc4ccc(Cl)cc4)nc3c2)c1	26.4	> 100	
CN(C)c1ccc(O)c2c1CC1CC3C(N(C)C)C(=O)C(C(N)=O)=C(O)[C@@]3(O)C(=O)C1=C2O (some centres not stated)	3.33	7.59	> 40
CC(C)c1ccc(CNC(=O)C(=O)Nc2nccs2)cc1	49.8	> 100	
Cc1nc(SCc2ccc(F)cc2)c2oc3ccccc3c2n1	< 0.195	> 100	
NC1=NC[C@H](CC2CCCCC2)N1CCc1cc(C(F)(F)F)cc(C(F)(F)F)c1	8.62	11	27.4
CCOC(=O)c1ccc(NC(=O)CCc2nc(-c3ccc(C)cc3)no2)cc1	1.36	12.4	> 40
COc1ccc(Nc2cc(C)nc(-n3nc(C)cc3C)n2)cc1	6.15	> 100	> 40
N#C/C(=C/c1cn(-c2ccccc2)nc1-c1cccc(OCc2ccc(F)cc2)c1)C(=O)NCCCn1ccnc1	4.19	6.45	22.5
Cc1ccc(C(=O)Nc2nnc(-c3ccco3)o2)cc1C	< 0.195	> 100	> 40
O=C(Nc1ccc(C(F)(F)F)cc1)N1CCN(c2ccnc3cc(Cl)ccc23)CC1	8.62	15.4	8.22
Cn1ccnc1C(O)c1cc(C(C)(C)C)c(O)c(C(C)(C)C)c1 (configuration not stated)	10.3	13.8	
C=CCOc1ccc(/C=N/O)cc1Cl		> 100	

SMILES	IC50 [µM]	IC90 [µM]	CC50 [µM]
O=C(Nc1ccccc1Cl)Oc1ccc(-c2ccccc2)cc1	59.5	> 100	> 40
CCOc1ccccc1/C=C/C(=O)c1ccc(Cl)cc1	24.3	34.2	> 40
CN(C)CCNc1nc2sc3c(c2c(=O)n1CCc1ccccc1)CCCCC3	8.57	11.1	12
O=C1c2cccc3c([N+](=O)[O-])ccc(c23)C(=O)N1Cc1cccnc1	2.02	3.69	6.25
Oc1c(CN2CCc3ccccc3C2)cc(Cl)c2cccnc12	7.65	9.8	4.88
Cc1cc(NC(=O)c2sccc2C)n(-c2nc3ccccc3[nH]2)n1	< 0.391	18.1	31.2
Cc1ccc2[nH]c3c(N4CCc5ccccc5C4)ncnc3c2c1	11.8	25.8	10.8
O=C(CSc1nc2ccccc2[nH]1)N1c2ccccc2Sc2ccccc21	17.4	> 100	> 40
Fc1ccc(C(OCCN2CCN(CCCc3ccccc3)CC2)c2ccc(F)cc2)cc1	4.22	5.59	19.2
Oc1ccc(Cl)cc1N=Cc1sc2ccccc2c1Cl	6.53	66.7	> 40
CCOc1ccc(Nc2nc(N)nc(CCl)n2)cc1	23.2	> 100	0.194
O=C1c2ccccc2C(=O)N1CCCCN(C(=O)c1cc([N+](=O)[O-])cc([N+](=O)[O-])c1)c1ccc(Cl)cc1	1.23	1.65	
COc1ccc(-c2oc3ncn(Cc4ccco4)c(=N)c3c2-c2ccc(OC)cc2)cc1	8.35	13.9	23.7
Cn1c(N=Nc2ccccc2)nc2ccccc21	1.04	1.89	16.1
Cc1nc(SCc2ccccc2F)c2oc3ccccc3c2n1		> 100	
Oc1ccc(COCc2ccccc2)c2cccnc12	3	3.31	1.6
O=C(/C=C/c1ccc(OCCCF)cc1)Nc1ccnc(-c2ccncc2)n1	84.1	> 100	> 40
O=C(O)c1ccc(Nc2nc(-c3cc4ccccc4oc3=O)cs2)cc1O	20.1	> 100	
CC(C)(C)NC(=O)COC(=O)c1cc(Br)ccc1Cl	11.9	> 100	
COc1ccc2nc(/N=C(\N)NC(=O)N3c4ccccc4Sc4ccccc43)nc(C)c2c1	28.5	> 100	> 40
COc1ccccc1C(=O)Nc1nnc(-c2ccc(Cl)cc2)o1	16.9	> 100	> 40

SMILES	IC50 [µM]	IC90 [µM]	CC50 [µM]
Nc1nc(CCOc2ccc(F)cc2)cs1	22.4	> 100	
O=C(OCC(=O)c1c[nH]c2ccccc12)c1ccc([N+](=O)[O-])s1	1.21	1.93	
O=C1N(c2ccc3c(c2)OCCO3)C(c2ccccc2)C1(F)F (configuration not stated)	2.57	7.34	
COc1ccc(-c2ccnc3nc(N4CCN(c5ccccc5)CC4)nn23)cc1	14.9	> 100	> 40
COc1ccc(N2C(=O)NC(=O)/C(=C/c3cccc(OC(=O)c4cccs4)c3)C2=O)cc1Cl	5.35	17.5	
CCCCOc1ccc(NC(=O)C2CC=CCC2C(=O)O)cc1 (configuration not stated)	75.7	> 100	
CCCCNC(=O)COC(=O)c1cc(Br)ccc1Cl	4.35	10.5	
COc1cccc(-c2nc(-c3ccccc3)nc(N3CCN(C)CC3)c2C#N)c1	8.8	12.4	26.7
CCOc1ccc(NC(=O)CSc2ccccc2N)cc1		> 100	
COc1ccc(C(C)(C)C)cc1NC(=O)COC(=O)c1cc(SC)ccc1Cl	54.6	> 100	
Cc1ccccc1/C=c1\s/c(=C\C(=O)C(C)(C)C)[nH]c1=O	52.8	> 100	17.2
CC(=O)n1cc(N(C(=O)CCl)c2ccc([N+](=O)[O-])cc2)c2ccccc21	14	30.3	14.7
CCOC(=O)Nc1ccc(C(=O)Oc2ccccc2)c(O)c1	< 0.195	> 100	> 40
O=[N+]([O-])c1ccc(/C=N/n2c(CO)nc3ccccc32)s1	0.523	1.1	> 40
O=C(CSCC(=O)Nc1ccc2ccccc2c1)NCc1ccccc1	35.4	> 100	
O=C(Nc1ccc(-c2csnn2)cc1)C(Cl)(Cl)Cl	< 0.195	> 100	
CCOC(=O)C1(CCc2ccccc2)CCN(Cc2ccccn2)CC1	19.7	> 100	
O=C(Nc1nnc(-c2ccccn2)o1)c1cccc(Cl)c1	5.25	> 100	> 40
CCCN(CC1CC1)C(=O)COC(=O)c1ccc2c(c1)C(=O)N(c1ccc(OCC)cc1)C2=O		> 100	
OCCc1ccc(-c2ccc(Cl)cc2)o1	23.5	> 100	
Cc1cc(=O)[nH]c(-n2nc(C)cc2C)n1	1.42	2.43	> 40

SMILES	IC50 [µM]	IC90 [µM]	CC50 [µM]
CCN1CCN(Cc2ccc(NC(=O)c3cc(NC(=O)c4cncc(-c5ccc(C#N)cc5)c4)cc(OC)c3)cc2C(F)(F)F)CC1	4.55	6.7	5.63
CN(c1ccccc1)c1nc(N2CCCC2)nc(-n2ccnc2)n1	3.05	3.54	> 40
Cc1ccc(C(=O)/C=C/c2ccccc2[N+](=O)[O-])cc1	4.21	7.62	26.5
CC(C)(c1ccccc1)c1ccc(OCC(O)CNC2CCN(Cc3ccccc3)CC2)cc1 (configuration not stated)	4.53	6.06	6.22
Cc1ccc(Nc2cc(C)nn2-c2nc(C)cc(=O)[nH]2)cc1	< 0.391	5.56	1.95
CC(Oc1ccc2oc3ccccc3c2c1)C(=O)NC12CC3CC(CC(C3)C1)C2 (configuration not stated)	44.7	> 100	
CCOc1ccc(-n2cc(-c3ccccc3)c3c(SC(C)C(=O)OC)ncnc32)cc1 (configuration not stated)	6.4	> 100	
Cc1nc([N+](=O)[O-])c(Br)n1CC(=O)c1ccc(Cl)cc1	16.8	23.2	30.6
O=C(CNC(=O)c1ccc(-c2ccccc2)cc1)OCc1c(F)cccc1Cl	7.49	> 100	
COc1ccc(N=Cc2c(O)c3ccccc3oc2=O)cc1		> 100	> 40
CCOC(=O)CSc1nnc(-c2ccc([N+](=O)[O-])cc2)o1	0.316	3.84	
COc1ccc(Cn2c(SCc3cc(C)ccc3C)nc3cc(OC)c(OC)cc3c2=N)cc1	2.59	2.83	7.51
CCOC(=O)c1ccc(NC(=O)CCOc2ccc(C)cc2)cc1	20.9	> 100	
CCCOC(=O)c1ccc(NC(=O)c2ccc(Br)o2)cc1	0.683	2.82	
CCOC(=O)c1ccc(N=C(C)c2c(O)[nH]c(=O)[nH]c2=O)cc1		> 100	
Oc1ccccc1N1CCN(c2ncnc3sc(-c4ccccc4)cc23)CC1	9.21	13	> 40
CCC(=O)OCCNc1cc(Sc2nccn2C)c2nonc2c1[N+](=O)[O-]	20.2	27.4	18.3
Cc1cc(C)c2c(CN3CCN(Cc4ccc5c(c4)OCO5)CC3)cc(=O)oc2c1C	19	> 100	
